# Legend:
# corn = test: Test C postemergence; assay type: in vivo, Zea mays
# In short: (§1)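 Preemergence: seeds sown in loam soil–sand blend and treated with test chemicals formulated in a non-phytotoxic solvent mixture containing a surfactant. Postemergence: plants grown in peat moss/vermiculite-based medium and sprayed with the same formulation at 2 to 18 cm height (1- to 4-leaf stage).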
# foxtail, giant [1] = test: Test A postemergence; assay type: in vivo, Setaria faberii; conditions: Setaria faberi, post-emergence, 240 h, 0 to 100 scale (0 no effect, 100 complete control), approx. 10 d, read-out: Plant response rating, Foxtail, Giant
# In short: (§2)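 Test chemicals in a non-phytotoxic solvent with surfactant were applied as a directed soil spray preemergence to seeds sown in loam/sand. Postemergence sprays went to plants 2–10 cm tall at the one- to two-leaf stage. A dash means no result.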
# sedge, umbrella = test: Test B flooded paddy test; assay type: in vivo, Cyperus difformis; conditions: Cyperus difformis, 360 h, 125 g ai/ha, applied to paddy water at 2-leaf stage, visual rating after 13 to 15 d, scale 0 (no effect) to 100 (complete control), read-out: Plant response rating, Sedge, Umbrella, Flood
# In short: (§3)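 Pots were flooded to 3 cm above the soil at treatment, and compounds were applied directly into the paddy water. That depth was held throughout. After 13 to 15 d in a greenhouse, plants were rated visually against untreated controls.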
# wheat (winter wheat) = test: Test C postemergence; assay type: in vivo, Triticum aestivum
# In short: as §1
# barnyardgrass [2] = test: Test B flooded paddy test; assay type: in vivo, Echinochloa crus-galli; conditions: Echinochloa crus-galli, 360 h, 125 g ai/ha, applied to paddy water at 2-leaf stage, visual rating after 13 to 15 d, scale 0 (no effect) to 100 (complete control), read-out: Plant response rating, Barnyardgrass, Flood
# In short: as §3
# lambsquarters = test: Test C postemergence; assay type: in vivo, Chenopodium album
# In short: as §1
# foxtail, giant [3] = test: Test C postemergence; assay type: in vivo, Setaria faberii
# In short: as §1
# chickweed = test: Test C postemergence; assay type: in vivo, Stellaria media
# In short: as §1
# soybean = test: Test C postemergence; assay type: in vivo, Glycine max
# In short: as §1
# blackgrass = test: Test C postemergence; assay type: in vivo, Alopecurus myosuroides
# In short: as §1
# oilseed rape = test: Test C postemergence; assay type: in vivo, Brassica napus; conditions: Oilseed Rape
# In short: as §1
# nutsedge, yellow = test: Test C postemergence; assay type: in vivo, Cyperus esculentus
# In short: as §1
# ryegrass, Italian = test: Test C postemergence; assay type: in vivo, Lolium multiflorum
# In short: as §1
# waterhemp = test: Test C postemergence; assay type: in vivo, Amaranthus rudis
# In short: as §1
# oat, wild = test: Test C postemergence; assay type: in vivo, Avena fatua
# In short: as §1
# pigweed [4] = test: Test A preemergence; assay type: in vivo, Amaranthus retroflexus; conditions: Amaranthus retroflexus, pre-emergence, 240 h, 0 to 100 scale (0 no effect, 100 complete control), read-out: Plant response rating, Pigweed
# In short: as §2
# wheat = test: Test A postemergence; assay type: in vivo, Triticum aestivum; conditions: Triticum aestivum, post-emergence, 240 h, 0 to 100 scale (0 no effect, 100 complete control), approx. 10 d, read-out: Plant response rating, Wheat
# In short: as §2
# barnyardgrass [5] = test: Test C postemergence; assay type: in vivo, Echinochloa crus-galli
# In short: as §1
# pigweed [6] = test: Test A postemergence; assay type: in vivo, Amaranthus retroflexus; conditions: Amaranthus retroflexus, post-emergence, 240 h, 0 to 100 scale (0 no effect, 100 complete control), approx. 10 d, read-out: Plant response rating, Pigweed
# In short: as §2
# galium = test: Test C postemergence; assay type: in vivo, Galium aparine
# In short: as §1
structure (smiles),measurement,setting,value
"COc1nc(-c2ccc(F)cc2)nn1Cc1ccnc(C(F)(F)F)c1 [Compound 9, 4-[[3-(4-fluorophenyl)-5-methoxy-1H-1,2,4-triazol-1-yl]methyl]-2-(trifluoromethyl)pyridine]",Plant response rating (scale of 0 to 100 where 0 is no effect and 100 is complete control),corn; 16 g ai/ha,10
same,Plant response rating (scale of 0 to 100 where 0 is no effect and 100 is complete control),corn; 31 g ai/ha,20
same,Plant response rating (scale of 0 to 100 where 0 is no effect and 100 is complete control),corn; 62 g ai/ha,35
same,Plant response rating (scale of 0 to 100 where 0 is no effect and 100 is complete control),corn; 125 g ai/ha,20
same,pest or weed control at 125 g/ha,"foxtail, giant [1]; 125 g ai/ha",80%
same,pest or weed control at 500 g/ha,"foxtail, giant [1]; 500 g ai/ha",100%
same,pest or weed control at 125 g/ha,"sedge, umbrella",80%
same,Plant response rating (scale of 0 to 100 where 0 is no effect and 100 is complete control),wheat (winter wheat); 16 g ai/ha,0
same,Plant response rating (scale of 0 to 100 where 0 is no effect and 100 is complete control),wheat (winter wheat); 31 g ai/ha,0
same,Plant response rating (scale of 0 to 100 where 0 is no effect and 100 is complete control),wheat (winter wheat); 62 g ai/ha,0
same,Plant response rating (scale of 0 to 100 where 0 is no effect and 100 is complete control),wheat (winter wheat); 125 g ai/ha,5
same,pest or weed control at 125 g/ha,barnyardgrass [2],0%
same,Plant response rating (scale of 0 to 100 where 0 is no effect and 100 is complete control),lambsquarters; 16 g ai/ha,65
same,Plant response rating (scale of 0 to 100 where 0 is no effect and 100 is complete control),lambsquarters; 31 g ai/ha,55
same,Plant response rating (scale of 0 to 100 where 0 is no effect and 100 is complete control),lambsquarters; 62 g ai/ha,70
same,Plant response rating (scale of 0 to 100 where 0 is no effect and 100 is complete control),lambsquarters; 125 g ai/ha,85
same,Plant response rating (scale of 0 to 100 where 0 is no effect and 100 is complete control),"foxtail, giant [3]; 16 g ai/ha",10
same,Plant response rating (scale of 0 to 100 where 0 is no effect and 100 is complete control),"foxtail, giant [3]; 31 g ai/ha",15
same,Plant response rating (scale of 0 to 100 where 0 is no effect and 100 is complete control),"foxtail, giant [3]; 62 g ai/ha",15
same,Plant response rating (scale of 0 to 100 where 0 is no effect and 100 is complete control),"foxtail, giant [3]; 125 g ai/ha",20
same,Plant response rating (scale of 0 to 100 where 0 is no effect and 100 is complete control),chickweed; 16 g ai/ha,70
same,Plant response rating (scale of 0 to 100 where 0 is no effect and 100 is complete control),chickweed; 31 g ai/ha,75
same,Plant response rating (scale of 0 to 100 where 0 is no effect and 100 is complete control),chickweed; 62 g ai/ha,75
same,Plant response rating (scale of 0 to 100 where 0 is no effect and 100 is complete control),chickweed; 125 g ai/ha,80
same,Plant response rating (scale of 0 to 100 where 0 is no effect and 100 is complete control),soybean; 16 g ai/ha,15
same,Plant response rating (scale of 0 to 100 where 0 is no effect and 100 is complete control),soybean; 31 g ai/ha,25
same,Plant response rating (scale of 0 to 100 where 0 is no effect and 100 is complete control),soybean; 62 g ai/ha,30
same,Plant response rating (scale of 0 to 100 where 0 is no effect and 100 is complete control),soybean; 125 g ai/ha,30
same,Plant response rating (scale of 0 to 100 where 0 is no effect and 100 is complete control),blackgrass; 16 g ai/ha,5
same,Plant response rating (scale of 0 to 100 where 0 is no effect and 100 is complete control),blackgrass; 31 g ai/ha,5
same,Plant response rating (scale of 0 to 100 where 0 is no effect and 100 is complete control),blackgrass; 62 g ai/ha,5
same,Plant response rating (scale of 0 to 100 where 0 is no effect and 100 is complete control),blackgrass; 125 g ai/ha,15
same,Plant response rating (scale of 0 to 100 where 0 is no effect and 100 is complete control),oilseed rape; 16 g ai/ha,40
same,Plant response rating (scale of 0 to 100 where 0 is no effect and 100 is complete control),oilseed rape; 31 g ai/ha,55
same,Plant response rating (scale of 0 to 100 where 0 is no effect and 100 is complete control),oilseed rape; 62 g ai/ha,80
same,Plant response rating (scale of 0 to 100 where 0 is no effect and 100 is complete control),oilseed rape; 125 g ai/ha,70
same,Plant response rating (scale of 0 to 100 where 0 is no effect and 100 is complete control),"nutsedge, yellow; 16 g ai/ha",0
same,Plant response rating (scale of 0 to 100 where 0 is no effect and 100 is complete control),"nutsedge, yellow; 31 g ai/ha",0
same,Plant response rating (scale of 0 to 100 where 0 is no effect and 100 is complete control),"nutsedge, yellow; 62 g ai/ha",0
same,Plant response rating (scale of 0 to 100 where 0 is no effect and 100 is complete control),"nutsedge, yellow; 125 g ai/ha",5
same,Plant response rating (scale of 0 to 100 where 0 is no effect and 100 is complete control),"ryegrass, Italian; 16 g ai/ha",0
same,Plant response rating (scale of 0 to 100 where 0 is no effect and 100 is complete control),"ryegrass, Italian; 31 g ai/ha",5
same,Plant response rating (scale of 0 to 100 where 0 is no effect and 100 is complete control),"ryegrass, Italian; 62 g ai/ha",5
same,Plant response rating (scale of 0 to 100 where 0 is no effect and 100 is complete control),"ryegrass, Italian; 125 g ai/ha",5
same,Plant response rating (scale of 0 to 100 where 0 is no effect and 100 is complete control),waterhemp; 16 g ai/ha,70
same,Plant response rating (scale of 0 to 100 where 0 is no effect and 100 is complete control),waterhemp; 31 g ai/ha,65
same,Plant response rating (scale of 0 to 100 where 0 is no effect and 100 is complete control),waterhemp; 62 g ai/ha,80
same,Plant response rating (scale of 0 to 100 where 0 is no effect and 100 is complete control),waterhemp; 125 g ai/ha,85
same,Plant response rating (scale of 0 to 100 where 0 is no effect and 100 is complete control),"oat, wild; 16 g ai/ha",5
same,Plant response rating (scale of 0 to 100 where 0 is no effect and 100 is complete control),"oat, wild; 31 g ai/ha",5
same,Plant response rating (scale of 0 to 100 where 0 is no effect and 100 is complete control),"oat, wild; 62 g ai/ha",5
same,Plant response rating (scale of 0 to 100 where 0 is no effect and 100 is complete control),"oat, wild; 125 g ai/ha",10
same,pest or weed control at 125 g/ha,pigweed [4]; 125 g ai/ha,100%
same,pest or weed control at 500 g/ha,"pigweed [4]; 500 g ai/ha, approx. 10 d",100%
same,plant injury at 125 g/ha,wheat; 125 g ai/ha,10%
same,plant injury at 500 g/ha,wheat; 500 g ai/ha,10%
same,Plant response rating (scale of 0 to 100 where 0 is no effect and 100 is complete control),barnyardgrass [5]; 16 g ai/ha,5
same,Plant response rating (scale of 0 to 100 where 0 is no effect and 100 is complete control),barnyardgrass [5]; 31 g ai/ha,10
same,Plant response rating (scale of 0 to 100 where 0 is no effect and 100 is complete control),barnyardgrass [5]; 62 g ai/ha,10
same,Plant response rating (scale of 0 to 100 where 0 is no effect and 100 is complete control),barnyardgrass [5]; 125 g ai/ha,20
same,pest or weed control at 125 g/ha,pigweed [6]; 125 g ai/ha,100%
same,pest or weed control at 500 g/ha,pigweed [6]; 500 g ai/ha,100%
same,Plant response rating (scale of 0 to 100 where 0 is no effect and 100 is complete control),galium; 16 g ai/ha,50
same,Plant response rating (scale of 0 to 100 where 0 is no effect and 100 is complete control),galium; 31 g ai/ha,70
same,Plant response rating (scale of 0 to 100 where 0 is no effect and 100 is complete control),galium; 62 g ai/ha,80
same,Plant response rating (scale of 0 to 100 where 0 is no effect and 100 is complete control),galium; 125 g ai/ha,65
